# Test results as given in PubChem BioAssay (NCI).
#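 Step 1: Grow cells in 96-well plates. Step 2: Expose to compound for 48 hours at 5 concentrations. Step 3: Interpolate endpoints linearly; if unreached, use highest concentration. TGI: concentration producing complete growth inhibition.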
# What was measured:
# Test in all cases: growth of human tumour cells (NCI), 48 h
# [1] = system: 786-0 renal
# [2] = system: OVCAR-5 ovarian
# [3] = system: RPMI-8226 leukemia
# [4] = system: HCT-15 colon
# [5] = system: COLO 205 colon
# [6] = system: SK-MEL-5 melanoma
# [7] = system: T-47D breast
# [8] = system: SN12C renal
# [9] = system: SK-OV-3 ovarian
# [10] = system: M14 melanoma
# [11] = system: NCI/ADR-RES ovarian
# [12] = system: A549 NSCLC
# [13] = system: A498 renal
# [14] = system: KM12 colon
# [15] = system: OVCAR-8 ovarian
# [16] = system: SNB-19 CNS
# [17] = system: U251 CNS
# [18] = system: EKVX NSCLC
# [19] = system: MCF7 breast
# [20] = system: PC-3 prostate
# [21] = system: NCI-H23 lung
# [22] = system: MOLT-4 leukemia
# [23] = system: SW-620 colon
# [24] = system: MDA-N
# [25] = system: OVCAR-3 ovarian
# [26] = system: HT29 colon
# [27] = system: ACHN renal
# [28] = system: MDA-MB-435
# [29] = system: NCI-H226 lung
# [30] = system: HOP-92 NSCLC
# [31] = system: K-562 leukemia
# [32] = system: CAKI-1 renal
# [33] = system: LOX IMVI melanoma
# [34] = system: BT-549 breast
# [35] = system: RXF 393 renal
# [36] = system: UO-31 renal
# [37] = system: HCT-116 colon
# [38] = system: NCI-H522 lung
# [39] = system: UACC-257 melanoma
# [40] = system: SF-268 CNS
# [41] = system: NCI-H460 lung
# [42] = system: HOP-62 NSCLC
# [43] = system: OVCAR-4 ovarian
# [44] = system: IGROV1 ovarian
# [45] = system: TK-10 renal
# [46] = system: SK-MEL-28 melanoma
# [47] = system: CCRF-CEM leukemia
# [48] = system: HS 578T breast
# [49] = system: MALME-3M melanoma
# [50] = system: HCC-2998 colon
# [51] = system: UACC-62 melanoma
# [52] = system: DU-145 prostate
# [53] = system: SF-295 CNS
# [54] = system: SK-MEL-2 melanoma
# [55] = system: SR leukemia
# [56] = system: SF-539 CNS
# [57] = system: HL-60(TB) leukemia
smiles,measurement,setting,value
CC(=O)Nc1ccc2c(c1)C(=Nc1ccc(C(=O)O)cc1)c1ccccc1-2,TGI,[1],> 100 µM
same,TGI,[2],> 100 µM
same,TGI,[3],> 100 µM
same,TGI,[4],> 100 µM
same,TGI,[5],> 100 µM
same,TGI,[6],> 100 µM
same,TGI,[7],> 100 µM
same,TGI,[8],> 100 µM
same,TGI,[9],> 100 µM
same,TGI,[10],> 100 µM
same,TGI,[11],> 100 µM
same,TGI,[12],> 100 µM
same,TGI,[13],> 100 µM
same,TGI,[14],> 100 µM
same,TGI,[15],> 100 µM
same,TGI,[16],> 100 µM
same,TGI,[17],> 100 µM
same,TGI,[18],84.9 µM
same,TGI,[19],> 100 µM
same,TGI,[20],> 100 µM
same,TGI,[21],> 100 µM
same,TGI,[22],> 100 µM
same,TGI,[23],> 100 µM
same,TGI,[24],> 100 µM
same,TGI,[25],> 100 µM
same,TGI,[26],> 100 µM
same,TGI,[27],> 100 µM
same,TGI,[28],> 100 µM
same,TGI,[29],87.1 µM
same,TGI,[30],> 100 µM
same,TGI,[31],> 100 µM
same,TGI,[32],> 100 µM
same,TGI,[33],> 100 µM
same,TGI,[34],> 100 µM
same,TGI,[35],> 100 µM
same,TGI,[36],> 100 µM
same,TGI,[37],> 100 µM
same,TGI,[38],> 100 µM
same,TGI,[39],> 100 µM
same,TGI,[40],> 100 µM
same,TGI,[41],> 100 µM
same,TGI,[42],> 100 µM
same,TGI,[43],> 100 µM
same,TGI,[44],> 100 µM
same,TGI,[45],> 100 µM
same,TGI,[46],> 100 µM
same,TGI,[47],> 100 µM
same,TGI,[48],> 100 µM
same,TGI,[49],> 100 µM
same,TGI,[50],> 100 µM
same,TGI,[51],> 100 µM
same,TGI,[52],> 100 µM
same,TGI,[53],> 100 µM
c1ccc2c(-c3ccnc(-c4c[nH]c5ccccc45)n3)c[nH]c2c1,TGI,[54],> 100 µM
same,TGI,[1],4.6 µM
same,TGI,[2],> 100 µM
same,TGI,[3],4.61 µM
same,TGI,[4],> 100 µM
same,TGI,[5],> 100 µM
same,TGI,[6],15 µM
same,TGI,[7],26.9 µM
same,TGI,[8],19.7 µM
same,TGI,[9],> 100 µM
same,TGI,[11],> 100 µM
same,TGI,[12],> 100 µM
same,TGI,[13],5.33 µM
same,TGI,[14],23.9 µM
same,TGI,[15],22.9 µM
same,TGI,[16],> 100 µM
same,TGI,[17],14.2 µM
same,TGI,[18],> 100 µM
same,TGI,[19],54.2 µM
same,TGI,[20],10.7 µM
same,TGI,[22],5.84 µM
same,TGI,[23],25.9 µM
same,TGI,[24],7.33 µM
same,TGI,[25],> 100 µM
same,TGI,[26],7.33 µM
same,TGI,[27],> 100 µM
same,TGI,[28],> 100 µM
same,TGI,[30],5.83 µM
same,TGI,[31],> 100 µM
same,TGI,[32],74.6 µM
same,TGI,[33],10.1 µM
same,TGI,[34],> 100 µM
same,TGI,[36],> 100 µM
same,TGI,[37],15.4 µM
same,TGI,[55],19.4 µM
same,TGI,[39],> 100 µM
same,TGI,[40],> 100 µM
same,TGI,[41],> 100 µM
same,TGI,[56],> 100 µM
same,TGI,[42],28.7 µM
same,TGI,[43],> 100 µM
same,TGI,[44],14.7 µM
same,TGI,[45],> 100 µM
same,TGI,[46],> 100 µM
same,TGI,[47],3.32 µM
same,TGI,[48],> 100 µM
same,TGI,[57],30.8 µM
same,TGI,[52],44.5 µM
same,TGI,[53],> 100 µM
